# Earlier results in patent US20050250746A1, “Premenstrual dysphoric disorder medication” (priority 2004, published 2005).
# Key:
# [1] = tested on: Severe Premenstrual Syndrome
# Premenstrual Syndrome = conditions: review of published research
# [2] = tested on: Severe Premenstrual Syndrome or Premenstrual Dysphoric Disorder; conditions: continuous or intermittent dosing
compound,measurement,setting,value
CC(=O)[C@H]1CC[C@H]2[C@@H]3CCC4=CC(=O)CC[C@]4(C)[C@H]3CC[C@]12C [progesterone],effectiveness of progesterone therapy versus placebo,[1]; oral progesterone,no better than placebo
same,difference between progesterone and placebo,Premenstrual Syndrome,no clinically important difference between progesterone and placebo
"CN[C@H]1CC[C@@H](c2ccc(Cl)c(Cl)c2)c2ccccc21 [seratraline, Sertraline]",improvement versus placebo group,[2],improved significantly more than the placebo group
"Cc1nnc2n1-c1ccc(Cl)cc1C(c1ccccc1)=NC2 [alpazolam, Alprazolam]",reduction in daily symptom report scores,"[1]; double-blind, versus placebo",50%
